From article PMC11926788, “Effect of SSR504734, a Selective Glycine Transporter Type 1 Inhibitor, on Seizure Thresholds, Neurotransmitter Levels, and Inflammatory Markers in Mice” (ACS Chemical Neuroscience, 2025)
Several values for one entry are separate records, joined by “and”; a condition that tells them apart may be missing. Equal values may be shown once. Where a name gives a salt, the structure may show the parent alone.

What was measured:
[1] = test system: TNFα, IL-6, IL-1β, TLR4, IL-10, IFN-γ, IL-18 in serum; experiment: Inflammatory markers in serum (ELISA); type: in vivo, mice; settings: 14-day administration, 30 mg/kg i.p.
Experimental: (§1) ELISA kits were used to determine IL-1-β, IL-6, IL-10, TNF-α, and IFN-γ (EIAAB Science INC, Wuhan, Hubei, China, nos. E0563m, E0079m, E0056m, E0049m, E0133m, E0753m) and IL-18 (Biorbyt Ltd., Cambridge, United Kingdom, no. orb437211) in the liver homogenates and serum. All assays were performed according to the producer’s instructions. All samples were tested in triplicate.

[2] = PAMPA (Gentest Precoated PAMPA Plate System); type: in vitro ADME; settings: ± SD
Experimental: A series of in vitro ADME-Tox tests were performed for SSR504734 in order to estimate its drugability. The ADME-Tox parameters including permeability, plasma protein binding, metabolic stability, neurotoxicity, and hepatotoxicity were carried out as described previously.[31],[32] The ability of SSR504734 to penetrate through the biological membrane by passive diffusion was estimated by the Gentest Precoated PAMPA Plate System (Corning, Tewksbury, MA) and expressed as the permeability coefficient (Pe). The protein binding analysis was performed by using the commercial TRANSIL^XL PPB test, which mimics in vitro physiological plasma conditions where human serum albumin (HAS) and alpha-1-acid glycoprotein AGP are present in a 24:1 ratio. The human metabolism of SSR504734 was studied using human liver microsomes (HLMs) provided by Sigma-Aldrich. The hepatotoxicity and neurotoxicity were estimated in cellular models with the use of hepatoma HepG2 and neuroblastoma SH-SY5Y cell lines to perform the preliminary safety tests. The cells were incubated with SSR504734 at the concentration range of 0.1–100 μM. 1 μM cytostatic drug doxorubicin (DX) was used as the reference.

[3] = Chimney test (motor coordination); type: in vivo, mice
Experimental: The impact of SSR504734 on motor coordination in mice was evaluated by using the chimney test. Each animal was individually placed inside a transparent Plexiglas tube with an inner diameter of 3 cm and a length of 30 cm. The tube was horizontally positioned on a table and shifted vertically once the mouse reached the opposite end. Within a 60 s time frame, the mouse was required to climb backward to escape from the tube. In order to minimize the number of animals used, a chimney test was carried out shortly before seizure tests.
Table S2. Time-course effect of SSR5504734 on neuromuscular strength and motor […]
Group Neuromuscular strength Impairment of motor
SSR504734 was dissolved in normal saline and injected i.p. at the dose of 30 mg/kg. Control animals received saline. The data are expressed as the mean ± SD of grip strengths measured in millinewtons per gram of mouse body weight (mN/g) from the grip-strength test assessing […]
coordination impairment in the chimney test. Each experimental group consisted of 12 animals. The grip-strength test results were analyzed using a one-way ANOVA with Dunnett’s post hoc test, while the data from the chimney test were statistically evaluated using Fisher’s exact probability test. *p<0.05 vs. control group.
Table S3. Effect of acute and 14-day treatment with SSR504734 on neuromuscular strength and motor coordination in mice
In acute studies, SSR504734 and sodium valproate (VPA; positive control) were injected i.p.
60 and 15 min before the test, respectively. In subchronic studies, SSR504734 and VPA were injected i.p. every 24 h for 14 days. The last administration was made 60 and 15 min before the tests, respectively. Control animals received saline. Each experimental group consisted of 12 animals. The grip-strength test results were analyzed using a one-way ANOVA with […]
Fisher’s exact probability test.

rat GlyT1 = target: T1, rat GlyT1 (Rattus norvegicus, UniProt P28572); experiment: GlyT1 radioligand binding ([3H]glycine, rat brain cortex, Eurofins Panlabs)
T1 construct: tissue Eurofins Panlabs Discovery Services Taiwan, Ltd. (ran the assay); host or cells: Wistar rat brain cortex
T1 sequence (P28572 1-638): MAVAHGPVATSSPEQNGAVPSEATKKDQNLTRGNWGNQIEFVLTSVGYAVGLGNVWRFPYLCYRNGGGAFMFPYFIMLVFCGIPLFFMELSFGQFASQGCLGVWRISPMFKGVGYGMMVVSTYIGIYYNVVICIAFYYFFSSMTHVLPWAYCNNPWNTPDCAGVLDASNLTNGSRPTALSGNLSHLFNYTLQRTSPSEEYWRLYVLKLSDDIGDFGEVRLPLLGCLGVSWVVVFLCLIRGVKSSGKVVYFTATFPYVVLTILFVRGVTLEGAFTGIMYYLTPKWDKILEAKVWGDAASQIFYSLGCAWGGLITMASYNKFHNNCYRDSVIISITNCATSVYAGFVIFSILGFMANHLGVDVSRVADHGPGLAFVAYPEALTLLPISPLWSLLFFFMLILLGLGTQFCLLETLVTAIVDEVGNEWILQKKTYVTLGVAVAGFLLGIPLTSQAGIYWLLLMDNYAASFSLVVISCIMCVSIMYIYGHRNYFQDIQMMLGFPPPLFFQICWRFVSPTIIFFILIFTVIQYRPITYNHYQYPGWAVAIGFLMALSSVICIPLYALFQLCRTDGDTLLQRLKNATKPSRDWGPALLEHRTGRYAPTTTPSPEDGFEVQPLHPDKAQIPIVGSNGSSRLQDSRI

[4] = test system: inflammatory markers in liver homogenates; experiment: Inflammatory markers in liver (ELISA); type: in vivo, mice; settings: 14-day administration, 30 mg/kg i.p.
Experimental: Samples of liver tissue were homogenized with a protease inhibitor solution (0.4 M NaCl, 0.05% Tween 20, 0.5% bovine serum albumin, 0.1 mM phenylmethylsulfonylfluoride, 0.1 mM benzethonium chloride, 10 mM EDTA, and 10 μg/mL aprotinin). Homogenates were centrifuged at 12,000 rpm at 4 °C, and supernatant fluids were collected and stored at −80 °C until analysis. The entire procedure was described by Zhao et al.[29]
as §1

[5] = test system: tonic hindlimb extension in the MEST test in rats; settings: cited from earlier work
[6] = read-out: % inhibition of control specific binding

With O=C(NC(c1ccccc1)C1CCCCN1)c1cccc(C(F)(F)F)c1Cl [SSR504734, 2-chloro-N-[(S)-phenyl[(2S)-piperidin-2-yl]methyl]-3-trifluoromethyl benzamide monohydrochloride] the “serum concentration of IFN-γ” value [1] was “no statistically significant differences”, the “serum concentration of IL-1β” value [1] was “significant increase” and the “serum concentration of IL-6” value [1] was “significant increase”. The “serum concentration of IL-10” value [1] was “significant increase”, the “serum concentration of IL-18” value [1] was “no statistically significant differences” and the “serum concentration of TNFα” value [1] was “significant increase”. The “serum concentration of TRL4” value [1] was “significant increase”, the Papp ([2]; PAMPA, read-out: PAMPA Pe) was 14.8 ± 1.49 ×10⁻⁶ cm/s and the “PAMPA Pe” value [2] was 14.80 10^–6 cm/s. For the same compound, the “Impairment of motor coordination” value ([3]; 30 mg/kg i.p., 15 min) was 0%, the “Impairment of motor coordination” value ([3]; 30 mg/kg i.p., 30 min) was 0% and the “Impairment of motor coordination” value ([3]; 30 mg/kg i.p., 60 min) was 0%. The “Impairment of motor coordination” value ([3]; 30 mg/kg i.p., 120 min) was 8.33%, the “Impairment of motor coordination” value ([3]; 30 mg/kg i.p., 240 min) was 0% and the “Impairment of motor coordination” value ([3]; 14-day treatment, 3 mg/kg i.p.) was 0%. For the same compound, the “Impairment of motor coordination” value ([3]; 14-day treatment, 10 mg/kg i.p.) was 0%, the “Impairment of motor coordination” value ([3]; 14-day treatment, 30 mg/kg i.p.) was 0% and the “Impairment of motor coordination” value ([3]; acute treatment, 10 mg/kg i.p.) was 0%. The “Impairment of motor coordination” value ([3]; acute treatment, 30 mg/kg i.p.) was 0%, the “Impairment of motor coordination” value ([3]; acute treatment, 50 mg/kg i.p., 50 mg/kg) was 33.3% and ~33% and the “% inhibition of control specific binding” value (rat GlyT1; 0.1 μM, rat brain cortex) was “moderate interaction”. It also gave an inhibition at 0.1 µM (rat GlyT1; [6]) of 42%, an inhibition at 20 µM (rat GlyT1; [6]) of 52% and an inhibition at 100 µM (rat GlyT1; [6]) of 62%. For the same compound, the “level of inflammatory markers in liver samples” value [4] was “No statistically significant changes” and the “effect on threshold for tonic hindlimb extension” value [5] was “strong, dose-dependent increase”.
